Source: patent US11124476B2, “Tunable nitric oxide-releasing macromolecules having multiple nitric oxide donor structures” (The University of North Carolina at Chapel Hill, priority 2011, dated 2021)

Test: NO release from NO-releasing co-condensed silica, Nitric Oxide Analyzer, physiological condition
Format: physicochemical
Protocol: A variety of single and multi-donor co-condensed silica macromolecules were synthesized. […] FIGS. 8A and 8B illustrate the same release profiles with normalized maximum NO concentration. FIG. 8B illustrates the same release profiles, with normalized maximum NO concentration, as FIG. 8A, but is an expanded view of the release profiles. All release profiles were collected with a Nitric Oxide Analyzer under physiological condition at pH=7.4 and 37° C.
To make NO-releasing co-condensed silica with programmed release profile, the different silane diazeniumdiolate monomer solutions were mixed at the pre-set ratios. The mixture is then added into a flask with pre-cooled ethanol with nitrogen protection. The mixture is further cooled to −15° C. and pre-set amount of backbone silane (TEOS or TMOS) is added. When the mixture temperature equilibriums to −15° C., the ammonium hydroxide aqueous solution is added. The reaction is then warmed rapidly to 15° and stirred for additional 3 hours. The content is then filtered. The solid is washed with dry ethanol twice and then dried extensively.

## CCCCCCCCCCCCNCCCCCCN(CCCCCCCCCCCC)/[N+]([O-])=N/O [MAP3 diazeniumdiolate]
  duration of NO release: only a few minutes
